The source of these data is PMC12516686, “Design of 2‑Aminobenzothiazole Derivatives Targeting Trypanosomatid PTR1 by a Multidisciplinary Fragment Hybridization Approach” (Journal of Medicinal Chemistry, 2025).

A word on the inhibition: it is how much of the control response was suppressed. Broadly, the EC50 is the concentration giving half of the maximal effect. Broadly, the IC50 is the point on the concentration scale where inhibition reaches its midpoint.

Read-outs that look alike come from different tables or passages of the source. Where only a bound is given, the exact number is not on record here.

The subject of data set [1] is L. infantum intracellular amastigotes. Put plainly: Activity against L. infantum intracellular amastigotes (luciferase). In kind it is cell-based, Leishmania infantum. The settings on record: for inhibition at 10 µM: Leishmania infantum, read-out: L. infantum % cell growth inhibition. How it is done: Luciferase-expressing L. infantum (MHOM/MA/67/ITMAP-263) axenic amastigotes were cultured in MAA/20 medium at 37 °C with 5% CO2. The parasites were maintained in 5 mL T25 ventilated flasks and subcultured every 7 days at a concentration of 1 × 10^6 cells/mL.
The activity against Leishmania infantum intracellular amastigotes was evaluated following the method described with modifications. THP-1 cells were differentiated into macrophages with PMA as described above. The cells were then infected with L. infantum axenic amastigotes expressing episomal luciferase at a macrophage-to-amastigote ratio of 1:10 for 4 h at 37 °C and 5% CO2. Noninternalized parasites were washed away, and compounds were added at various concentrations to a final volume of 100 μL. A dose–response curve for miltefosine was included in all assays as a quality control. Each condition was tested in quadruplicate. After 72 h of incubation, the medium was replaced with 100 μL of PBS, and 25 μL of Glo-lysis buffer from the Steady-Glo Luciferase Assay System (Promega, Madison, WI, USA) was added. The plates were agitated at 100 rpm for 10 min at room temperature. Subsequently, 30 μL of the Steady-Glo reagent (Promega, Madison, WI, USA) was added and incubated for 15 min in the dark under the same conditions. A total of 140 μL from each well was transferred to white-bottom 96-well plates, and luminescence intensity was measured using a Synergy 2 multimode reader (Biotek, Winooski, VT, USA). The antileishmanial effect was evaluated by comparison of the nontreated infected cells. The IC50 was determined (for miltefosine) through nonlinear regression analysis using GraphPad Prism version 8.1.1 for Windows (GraphPad Software, San Diego, CA, USA). Results represent the average of at least three independent experiments.

For data set [2], the system named is Trypanosoma brucei brucei L427 wild-type (WT) bloodstream forms. Put plainly: Activity against T. brucei (resazurin-based assay). To be noted: Trypanosoma brucei; for inhibition at 10 µM: read-out: T. brucei % cell growth inhibition. It is filed as cell-based. How it is done: The parasites were grown in 5 mL T25 ventilated flasks containing complete HMI-9 medium. The medium was supplemented with 10% heat-inactivated FBS and 100 IU/mL penicillin/streptomycin. To maintain the cultures, subpassages were performed every 2 days at a concentration of 1 × 10^4 cells/mL.
The efficacy of the compounds against Trypanosoma brucei brucei L427 wild-type (WT) bloodstream forms was assessed using a resazurin-based assay as described elsewhere. T. b. brucei L427 bloodstream forms were prepared at a cell density of 5 × 10^3 cells/mL in supplemented complete medium. Serial dilutions of the test compounds were prepared in a final volume of 100 μL, and 100 μL of the parasite suspension was added to each well containing the compound dilutions, resulting in a total volume of 200 μL per well. A dose–response curve for pentamidine was included as a quality control in each assay, and each condition was tested in duplicate. The plates were incubated for 72 h under the specified conditions for the parasite. After the incubation period, 20 μL of a 0.5 mM resazurin solution was added to each well, and the plates were incubated for an additional 4 h under the same conditions. Fluorescence was measured at an excitation wavelength of 544 nm and an emission wavelength of 590 nm using a Synergy 2 Multi-Mode Reader (Biotek, Winooski, VT, USA). The results were expressed as the percentage of parasite growth inhibition compared to the control (untreated parasites) and represented the average of at least three independent experiments.
In general terms: Alamar Blue is a resazurin reagent that responds to reducing activity.

The next data set concerns the target T1, CYP2D6 (Homo sapiens, UniProt P10635).
T1 construct: purchased Promega; host or cells: baculovirus-infected insect cells
Put plainly: Cytochrome P450 assay (P450-Glo), isoform 2D6. In kind it is in vitro ADME. An excerpt: (§1) 3A4. The Promega P450-Glo assay platform was used with microsomal preparations of
(§2) cytochrome P450s from baculovirus-infected insect cells. […]

Another data set concerns the target T2, CYP2C19 (Homo sapiens, UniProt P33261).
T2 construct: purchased Promega; host or cells: baculovirus-infected insect cells
Put plainly: Cytochrome P450 assay (P450-Glo), isoform 2C19. In kind it is in vitro ADME.
Excerpt: as §1, §2

In another data set the target is T3, TbPTR1 (Trypanosoma brucei brucei, UniProt O76290).
T3 sequence (O76290 1-268): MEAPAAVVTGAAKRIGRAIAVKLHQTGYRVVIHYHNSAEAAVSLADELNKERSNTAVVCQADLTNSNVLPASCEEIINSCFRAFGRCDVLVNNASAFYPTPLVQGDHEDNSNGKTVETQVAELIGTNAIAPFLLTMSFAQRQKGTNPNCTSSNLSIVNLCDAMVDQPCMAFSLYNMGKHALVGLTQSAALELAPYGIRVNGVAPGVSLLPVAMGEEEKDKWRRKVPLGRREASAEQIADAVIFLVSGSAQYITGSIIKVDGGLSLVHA
Put plainly: TbPTR1 indirect (cytochrome c-coupled) enzyme assay. It is filed as biochemical. To be noted: for IC50: indirect assay, triplicate, SD within ± 10% of the value. How it is done: The in vitro assays used in the current study were based on those reported in the literature. As PTR1 enzymes use dihydrobiopterin (H2B) as a substrate and also require NADPH for the reaction, the reduction of H2B to tetrahydrobiopterin by PTR1 is nonenzymatically linked with the reduction of cytochrome c in this assay, which is detected at 550 nm. The formation of cyt c Fe^2+ results in an increase in the photometric readout. TbPTR1 and LmPTR1 activity was assayed in a buffer containing 20 mM sodium citrate (pH 6.0). The final reaction mixture contained the test compound at a range of concentrations and TbPTR1/LmPTR1 (6.0 nM/12 nM), H2B (0.3 μM/3 μM), cytochrome c (100 μM/100 μM), and NADPH (500 μM/500 μM). The final assay volume was 50 μL in 384-well clear plates (Greiner Bio-One, 781101). Compound screening was performed by the addition of the compound to the assay plates (in 100% DMSO), followed by the addition of 45 μL Reaction Mix (enzyme, H2B cytochrome c in 20 mM sodium citrate buffer). A pre-read was made at 550 nm using an EnVision Multilabel Reader 2103 (PerkinElmer Inc., US), followed by incubation of the assay plates at 30 °C for 10 min. The reaction was initiated by the addition of 5 μL of NADPH (5 mM in ultrapure water) followed by kinetically reading the assay plates at 550 nm using the EnVision Multilabel Reader at 10, 20, 30, 40, and 50 min. The slope of each assay well was calculated. The screening data were analyzed using ActivityBase (IDBS), and for outlier elimination in the control wells, the 3-σ method was applied. Based on the slope, the data were normalized to the positive control methotrexate for TbPTR1/LmPTR1 (1 μM/50 μM, yielding 100% inhibition) and negative controls (1% DMSO, yielding 0% inhibition), and % inhibition was calculated for all samples. The measurement at time 0 min was used to flag optically interfering samples. Each compound was tested in triplicate, and the pIC50 value, standard deviation, Hill slope, and minimum and maximum signals for each dose–response curve were obtained using a 4-parameter logistic fit in the XE module of Activity Base (IDBS), as also reported previously. ,

Where [3] appears, read: at 10 μM, intracellular amastigotes.
[4] abbreviates: read-out: 95% confidence interval for EC50 (T. brucei).
The mark [5] stands for this setting: read-out: T. brucei EC50 (converted).

T2 sequence (P33261 whole entry): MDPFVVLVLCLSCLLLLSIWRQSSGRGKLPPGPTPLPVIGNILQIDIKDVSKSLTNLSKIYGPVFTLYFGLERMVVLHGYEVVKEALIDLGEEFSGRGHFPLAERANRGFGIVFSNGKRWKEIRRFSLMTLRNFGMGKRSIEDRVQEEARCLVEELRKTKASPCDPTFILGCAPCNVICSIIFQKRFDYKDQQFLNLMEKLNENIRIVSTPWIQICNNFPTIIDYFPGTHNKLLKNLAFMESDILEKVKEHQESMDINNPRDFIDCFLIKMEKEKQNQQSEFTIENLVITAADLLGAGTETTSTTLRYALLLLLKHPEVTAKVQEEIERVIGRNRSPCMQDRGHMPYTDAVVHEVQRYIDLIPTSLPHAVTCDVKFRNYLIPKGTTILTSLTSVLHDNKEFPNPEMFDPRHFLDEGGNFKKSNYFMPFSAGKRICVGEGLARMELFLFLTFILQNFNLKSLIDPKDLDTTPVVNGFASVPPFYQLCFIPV
T1 sequence (P10635 whole entry): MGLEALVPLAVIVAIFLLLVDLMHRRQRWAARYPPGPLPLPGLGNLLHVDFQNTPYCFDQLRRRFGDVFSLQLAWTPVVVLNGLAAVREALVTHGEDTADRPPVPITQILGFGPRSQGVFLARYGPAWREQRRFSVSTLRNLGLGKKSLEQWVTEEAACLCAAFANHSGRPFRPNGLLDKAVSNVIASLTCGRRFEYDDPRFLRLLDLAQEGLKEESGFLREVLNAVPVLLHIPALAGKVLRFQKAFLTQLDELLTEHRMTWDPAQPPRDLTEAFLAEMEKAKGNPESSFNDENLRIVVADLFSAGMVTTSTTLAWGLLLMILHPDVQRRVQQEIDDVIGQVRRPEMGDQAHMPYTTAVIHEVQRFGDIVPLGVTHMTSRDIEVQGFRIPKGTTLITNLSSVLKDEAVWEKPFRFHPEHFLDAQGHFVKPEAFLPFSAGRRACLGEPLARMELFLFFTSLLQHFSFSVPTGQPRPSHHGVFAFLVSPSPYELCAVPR

Consider `Nc1nc2ccc(C(=O)NCCc3ccc(Cl)c(Cl)c3)cc2s1` [Compound 1a, 2-amino-N-(3,4-dichlorophenethyl)benzo[d]thiazole-6-carboxamide], for which the results for the inhibition at 10 µM in data set [1] (setting [3]) and in data set [2] (at 10 μM) were under 0% and 100%, respectively. Moreover, in data set [1] (setting [3]), the “L. infantum % cell growth inhibition” value was “inactive”. Also, the EC50 is 2.83 to 3.37 µM in data set [2] (setting [4]) and 3.1 µM in data set [2] (setting [5]). Further, the IC50 against CYP2D6 was 0.1 µM; at CYP2C19 (read-out: CYP 2C19 IC50) it was 8.5 µM; at TbPTR1, 7.6 µM.
As to `Nc1nc2ccc(C(=O)N(CCc3ccc(Cl)c(Cl)c3)C3CC3)cc2s1` [Compound 1b, 2-amino-N-cyclopropyl-N-(3,4-dichlorophenethyl)benzo[d]thiazole-6-carboxamide], the inhibition at 10 µM in data set [1] (setting [3]) is about 50%; in data set [2] (at 10 μM), 97%. The “L. infantum % cell growth inhibition” value in data set [1] (setting [3]) is 46±13%. The results for the EC50 in data set [2] (setting [4]) and in data set [2] (setting [5]) were 4.45 to 5.88 µM and 5 µM, respectively. The IC50 against CYP2D6 stood at 0.9 µM; at CYP2C19 (read-out: CYP 2C19 IC50), 4.7 µM; on TbPTR1, 17.1 µM.
Take `Nc1nc2ccc(C(=O)N(Cc3ccc(Cl)c(Cl)c3)C3CC3)cc2s1` [Compound 1c, 2-amino-N-cyclopropyl-N-(3,4-dichlorobenzyl)benzo[d]thiazole-6-carboxamide]: the values for the inhibition at 10 µM in data set [1] (setting [3]) and in data set [2] (at 10 μM) were 24 ± 3% and 18 ± 8%, respectively. Besides, the IC50 against CYP2D6 was determined as 2.5 µM; at CYP2C19 (read-out: CYP 2C19 IC50), 2.9 µM; on TbPTR1 it was 71.6 µM.
The corresponding values for `Nc1nc2ccc(CN(Cc3ccc(Cl)c(Cl)c3)C3CC3)cc2s1` [Compound 1d, 6-((cyclopropyl(3,4-dichlorobenzyl)amino)methyl)benzo[_d_]thiazol-2-amine] are under 0%, 59 ± 2%, 2.5 µM, 1.2 µM and 3.3 µM.
For the compound `Nc1nc2ccc(C(=O)N(CCc3ccc(Cl)c(Cl)c3)c3ccccc3)cc2s1` [Compound 1e, 2-amino-N-(3,4-dichlorophenethyl)-N-phenylbenzo[d]thiazole-6-carboxamide], the inhibition at 10 µM is under 0% in data set [1] (setting [3]) and 31% in data set [2] (at 10 μM). In addition, the activity at 10 µM on CYP2D6 (human, at 10 µM compound concentration, read-out: CYP 2D6 % residual activity) stood at 59.9%; on CYP2C19 (human, at 10 µM compound concentration, read-out: CYP 2C19 % residual activity), 31.1%. In addition, testing at 50 µM at TbPTR1 (at 50 μM) gave an inhibition of 18 ± 1%.
As for `Nc1nc2ccc(C(=O)NCCc3ccccc3)cc2s1` [Compound 2a, 2-amino-N-phenethylbenzo[d]thiazole-6-carboxamide], the inhibition at 10 µM is under 0% in data set [1] (setting [3]) and 27% in data set [2] (at 10 μM). In addition, the “CYP 2D6 IC50” value on CYP2D6 is “max”. For the same compound, the IC50 at CYP2C19 (read-out: CYP 2C19 IC50) was found to be 25.6 µM; against TbPTR1, 14.5 µM.
Take `Nc1nc2ccc(C(=O)NCCc3cccc(Cl)c3)cc2s1` [Compound 2b, 2-amino-N-(3-chlorophenethyl)benzo[d]thiazole-6-carboxamide]: the inhibition at 10 µM in data set [1] is under 0%; in data set [2] it was 51%. The results for the half-inhibitory concentration (IC50) on CYP2D6, on CYP2C19 and against TbPTR1 were 0.9 µM, 6.3 µM and 3.9 µM, respectively.
In the case of `Nc1nc2ccc(C(=O)NCCc3ccc(Cl)cc3)cc2s1` [Compound 2c, 2-amino-N-(4-chlorophenethyl)benzo[d]thiazole-6-carboxamide], the inhibition at 10 µM is under 0% in data set [1] (setting [3]) and 27% in data set [2] (at 10 μM). Moreover, the IC50 against CYP2D6 was found to be 0.5 µM; at CYP2C19 (read-out: CYP 2C19 IC50), 4.2 µM; at TbPTR1, 4.8 µM.
Taken in the same sequence, the figures for `Nc1nc2ccc(C(=O)NCCc3cccc(Br)c3)cc2s1` [Compound 2d, 2-amino-N-(3-bromophenethyl)benzo[d]thiazole-6-carboxamide] were under 0%, 39 ± 5%, 5 µM, 2.9 µM and 2.4 µM.
The corresponding values for `Nc1nc2ccc(C(=O)NCCc3ccc(Br)cc3)cc2s1` [Compound 2e, 2-amino-N-(4-bromophenethyl)benzo[d]thiazole-6-carboxamide] are under 0%, 37%, 0.1 µM, 2.5 µM and 2.9 µM.
Consider `Nc1nc2ccccc2n1Cc1ccc(Cl)c(Cl)c1` [I, 1-(3,4-dichlorobenzyl)-1H-benzimidazol-2-amine, reference compound], for which the inhibition at 10 µM in data set [1] (setting [3]) was 29 ± 2%; in data set [2] (at 10 μM), under 0%. The IC50 was 0.3 µM at CYP2C19 (read-out: CYP 2C19 IC50) and 0.39 µM against TbPTR1.
